# Source: article PMC6101033 (Neuron, 2017)
# Experiments:
# [1] = system: RhoA; experiment: RhoA2G FRET sensor imaging in hippocampal neurons; conditions: AP5 1μM + ADDLs; dendritic shaft; Figure S4E
# [2] = system: calcium signaling in hippocampal neurons; experiment: RCaMP calcium sensor imaging in hippocampal neurons; conditions: for baseline calcium in dendrites, VGCC blockers: all 1μM, sustained (1 min mean) ΔF/F of shaft ROIs, n=3–11 neurons, p<0.03 vs control imaging period; for inhibition of dendritic calcium in neurons lacking T-type channels: shCaV3.1-3.3, Figure S5E
# [3] = system: T-type calcium channels; experiment: whole-cell T-type; format: cell-based, Long-Evans rat; conditions: for T-type current inhibition, blockers: 1μM; for LV currents in neurons lacking all T-type channels: shCaV3.1-3.3, Figure S6F
# [4] = system: hippocampal neurons; experiment: cell health and dendritic spine integrity under blockers; format: cell-based, Long-Evans rat; conditions: hippocampal slice cultures; data not shown
# [5] = system: T-type calcium channels; experiment: T-type currents in acute hippocampal slices; parameters: species or system mouse; conditions: NNC added to slice; Figure S8E
# [6] = system: CA1 pyramidal neurons (Schaffer collateral-CA1 synapses)
# [7] = system: T-type channel; conditions: ref Yamamoto et al, 2013; cited from earlier work
# [8] = system: LTP; conditions: ref Moriguchi et al., 20012; cited from earlier work
# [9] = system: hippocampal neurons; conditions: ref Wills et al., 2012; cited from earlier work
# [10] = AP5 1μM + ADDLs, dendritic shaft, Figure S4E
molecule,measurement,setting,value
NC(CCCP(=O)(O)O)C(=O)O (stereo not drawn) [AP5],long-term RhoA activation by ADDLs under NMDAR inhibition,[1],long-term activation of RhoA and inhibition of calcium signaling is preserved
same,acute calcium response to ADDLs under NMDAR inhibition,[2]; [10],acute calcium responses to ADDLs in the dendritic shaft of neurons are lost
same,long-term calcium inhibition by ADDLs under NMDAR inhibition,[2]; [10],long-term activation of RhoA and inhibition of calcium signaling is preserved
CC(C)[C@H]1c2ccc(F)cc2CC[C@@]1(CCN(C)CCCc1nc2ccccc2[nH]1)OC(=O)C1CC1 [NNC],"T-type current inhibition, blockers",[3],ADDL’s inhibition of T-type currents was comparable to T-type channel blockers NNC and TTA-P2
same,LV currents in neurons lacking all T-type channels,[3],neither NNC or TTAP2 inhibit LV currents in neurons lacking all T-type channels
same,"baseline calcium in dendrites, VGCC blockers",[2],elicited the largest reductions in baseline calcium in dendrites
same,inhibition of dendritic calcium in neurons lacking T-type channels,[2],eliminates NNC and TTA-P2’s inhibition of calcium signaling in dendrites
same,"effects on dendritic spines, NNC",[4],no pathological effects on dendritic spines in hippocampal slice cultures
same,LV currents in acute hippocampal slice,[5],inhibits LV currents in our acute hippocampal slice recording
same,"LTP rescue under ADDLs by ROCK inhibition or NgR loss, effect of NNC","[6]; NNC 10μM + ADDL + Y27632 (10μM) or NgR^NNN, p<0.04",reverses the capacity of ROCK inhibition (Y27632) or NgR loss (NgR^NNN) to rescue neurons from ADDL-mediated LTP reduction
same,"LTP, NNC combined with ADDLs","[6]; NNC 10μM + ADDL, fEPSC 55–60 min, n=6–8 animals/slices per condition",no greater inhibition of LTP than either ADDL or NNC alone
same,"LTP, T-type channel blocker","[6]; NNC 10μM, 6 months mice, fEPSC 55–60 min, p<0.001 vs CON",inhibits LTP in acute hippocampal slices
"O=C1N=C2C=CC=CN2C12Cc1ccccc1C2 [STK101, spiro[imidazo-[1,2-a]pyridine-3,2-indan]-2(3H)-one]",T-type channel agonism,[7],T-type channel agonist
same,LTP,[8],enhances LTP
CC1(C)C[C@@H](CN2CCC(F)(CNC(=O)c3cc(Cl)cc(Cl)c3)CC2)CCO1 [TTA-P2],"T-type current inhibition, blockers",[3],ADDL’s inhibition of T-type currents was comparable to T-type channel blockers NNC and TTA-P2
same,LV currents in neurons lacking all T-type channels,[3],neither NNC or TTAP2 inhibit LV currents in neurons lacking all T-type channels
same,"baseline calcium in dendrites, VGCC blockers",[2],elicited the largest reductions in baseline calcium in dendrites
same,inhibition of dendritic calcium in neurons lacking T-type channels,[2],eliminates NNC and TTA-P2’s inhibition of calcium signaling in dendrites
C[C@@H](N)[C@H]1CC[C@H](C(=O)Nc2ccncc2)CC1 [Y27632],reversal of ADDL block of T-type currents,[3]; Y27632 1μM + ADDLs,reverses ADDL’s block of T-type channel currents
same,ADDL inhibition of dendritic calcium under ROCK inhibition,"[2]; Y27632 1μM, 10 minutes, then ADDLs 150nM, n=3 neurons",ADDL-mediated inhibition of dendritic calcium signaling in neurons is lost
same,"RCaMP activity in the dendritic shaft, ROCK inhibitor","[2]; Y27632 1μM, 1 min mean ΔF/F, shaft ROIs",marked rise in RCaMP activity in the dendritic shaft of neurons
same,ADDL inhibition of dendritic calcium after washout of Y27632,"[2]; washout 10 minutes, then ADDLs 150nM, n=3 neurons, p<0.001 vs CON","following a washout of Y27632, ADDL’s inhibition of dendritic calcium signaling is restored"
same,"neuron health, Y27632",[9],no deleterious effects on neuron health
same,"LTP, reversal of ADDL inhibition","[6]; Y27632 1μM preincubation + ADDLs 150 nM, fEPSC 55–60 min, p<0.05 vs ADDL",reverses ADDL’s inhibition of LTP
same,"LTP, ROCK inhibitor alone","[6]; Y27632 1μM, control neurons, no ADDLs, p<0.03 vs CON (WT)",blocks LTP
COCCOC(=O)C1=C(C)NC(C)=C(C(=O)OC(C)C)C1c1cccc([N+](=O)[O-])c1 (stereo not drawn) [nimodipine],"LTP, L-type channel blocker","[6]; Nimodipine 1μM, 6 months mice, fEPSC 55–60 min",no effect on LTP
lysophosphatidic acid [LPA],"T-type currents, RhoA activator","[3]; LPA 1μM vs ADDLs 150nM, 14–18 DIV",inhibits T-type currents with a magnitude comparable to that of ADDLs
